In the supplement of paper PMC10307832:

What was measured:
Assay in all cases: relative viability (nuclei count vs DMSO), 5 days (fraction); higher = more cells survive
Pictilisib + Palbociclib = compound: CS(=O)(=O)N1CCN(Cc2cc3nc(-c4cccc5[nH]ncc45)nc(N4CCOCC4)c3s2)CC1 [Pictilisib] + CC(=O)c1c(C)c2cnc(Nc3ccc(N4CCNCC4)cn3)nc2n(C2CCCC2)c1=O [Palbociclib] (partner 0.5 µM)
Method in brief: (§1)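 The day after seeding in 1536-well plates, lung cancer cell lines were treated by pin tool with a single drug, or with a fixed anchor-drug dose together with five library-drug doses (not always all listed) in √10 steps. After 5 days, a combined fix-and-stain solution (final 0.05% Triton X-100, 1% formaldehyde, 1 ug/ml Hoechst) was added. Nuclei counted on 4× images gave relative viability as treated counts over vehicle counts, reported as the median of duplicate plates.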

Pictilisib + Navitoclax = compound: CS(=O)(=O)N1CCN(Cc2cc3nc(-c4cccc5[nH]ncc45)nc(N4CCOCC4)c3s2)CC1 [Pictilisib] + CC1(C)CCC(c2ccc(Cl)cc2)=C(CN2CCN(c3ccc(C(=O)NS(=O)(=O)c4ccc(N[C@H](CCN5CCOCC5)CSc5ccccc5)c(S(=O)(=O)C(F)(F)F)c4)cc3)CC2)C1 [Navitoclax] (partner 0.5 µM)
Method in brief: as §1

MK-2206 + Luminespib = compound: NC1(c2ccc(-c3nc4ccn5c(=O)[nH]nc5c4cc3-c3ccccc3)cc2)CCC1 [MK-2206] + CCNC(=O)c1noc(-c2cc(C(C)C)c(O)cc2O)c1-c1ccc(CN2CCOCC2)cc1 [Luminespib] (partner 0.01 µM)
Method in brief: as §1

MK-2206 + Foretinib = compound: NC1(c2ccc(-c3nc4ccn5c(=O)[nH]nc5c4cc3-c3ccccc3)cc2)CCC1 [MK-2206] + COc1cc2c(Oc3ccc(NC(=O)C4(C(=O)Nc5ccc(F)cc5)CC4)cc3F)ccnc2cc1OCCCN1CCOCC1 [Foretinib] (partner 0.25 µM)
Method in brief: as §1

MK-2206 + Decitabine = compound: NC1(c2ccc(-c3nc4ccn5c(=O)[nH]nc5c4cc3-c3ccccc3)cc2)CCC1 [MK-2206] + Nc1ncn([C@H]2C[C@H](O)[C@@H](CO)O2)c(=O)n1 [Decitabine] (partner 2 µM)
Method in brief: as §1

Row | Cell Line | relative viability (Pictilisib + Palbociclib; first compound 0.02 µM) | relative viability (Pictilisib + Palbociclib; first compound 0.06325 µM) | relative viability (Pictilisib + Palbociclib; first compound 0.6325 µM) | relative viability (Pictilisib + Palbociclib; first compound 2 µM) | relative viability (Pictilisib + Navitoclax; first compound 0.02 µM) | relative viability (Pictilisib + Navitoclax; first compound 0.06325 µM) | relative viability (Pictilisib + Navitoclax; first compound 0.6325 µM) | relative viability (Pictilisib + Navitoclax; first compound 2 µM) | relative viability (MK-2206 + Luminespib; first compound 0.01 µM) | relative viability (MK-2206 + Luminespib; first compound 0.03162 µM) | relative viability (MK-2206 + Luminespib; first compound 0.3162 µM) | relative viability (MK-2206 + Luminespib; first compound 1 µM) | relative viability (MK-2206 + Foretinib; first compound 0.01 µM) | relative viability (MK-2206 + Foretinib; first compound 0.03162 µM) | relative viability (MK-2206 + Foretinib; first compound 0.3162 µM) | relative viability (MK-2206 + Foretinib; first compound 1 µM) | relative viability (MK-2206 + Decitabine; first compound 0.01 µM) | relative viability (MK-2206 + Decitabine; first compound 0.03162 µM) | relative viability (MK-2206 + Decitabine; first compound 0.3162 µM) | relative viability (MK-2206 + Decitabine; first compound 1 µM)
1 | LCLC-97TM1 | 0.206 | 0.269 | 0.125 | 0.0838 | 0.288 | 0.768 | 0.221 | 0.107 | 0.873 | 0.775 | 0.618 | 0.616 | 0.881 | 0.929 | 0.887 | 0.804 | 0.242 | 0.259 | 0.26 | 0.206
2 | LK-2 | 0.588 | 0.673 | 0.354 | 0.259 | 0.879 | 0.585 | 0.63 | 0.321 | 0.173 | 0.199 | 0.212 | 0.17 | 1.57 | 1.19 | 1.34 | 1.39 | 0.36 | 0.355 | 0.286 | 0.12
3 | LOU-NH91 | 0.524 | 0.546 | 0.563 | 0.514 | 0.822 | 0.735 | 0.573 | 0.408 | 0.344 | 0.303 | 0.32 | 0.373 | 0.984 | 0.958 | 0.927 | 0.917 | 0.783 | 0.839 | 0.793 | 0.768
4 | LU99A | 0.426 | 0.288 | 0.316 | 0.177 | 0.818 | 0.638 | 0.574 | 0.361 | 0.284 | 0.251 | 0.268 | 0.203 | 0.805 | 0.774 | 0.847 | 0.816 | 0.854 | 0.937 | 0.921 | 0.903
5 | LXF-289 | 0.584 | 0.588 | 0.621 | 0.398 | 0.97 | 0.935 | 0.992 | 0.827 | 0.661 | 0.722 | 0.728 | 0.771 | 0.932 | 0.941 | 1.01 | 1.05 | 0.398 | 0.418 | 0.412 | 0.396
6 | NCI-H23 | 0.505 | 0.439 | 0.351 | 0.186 | 0.852 | 0.899 | 0.665 | 0.372 | 0.214 | 0.215 | 0.19 | 0.211 | 1.1 | 1.11 | 1.05 | 0.902 | 0.325 | 0.318 | 0.295 | 0.332
7 | NCI-H322M | 0.496 | 0.495 | 0.448 | 0.415 | 1.23 | 1.22 | 0.956 | 1.14 | 0.91 | 0.95 | 0.825 | 0.882 | 0.871 | 1.11 | 1.1 | 1.01 | 0.677 | 0.735 | 0.787 | 0.624
8 | NCI-H441 | 0.216 | 0.192 | 0.152 | 0.148 | 0.856 | 0.64 | 0.505 | 0.413 | 0.31 | 0.409 | 0.271 | 0.262 | 0.923 | 1.03 | 0.59 | 0.822 | 0.248 | 0.251 | 0.206 | 0.234
9 | NCI-H460 | 0.185 | 0.161 | 0.111 | 0.0339 | 1.15 | 1.07 | 0.563 | 0.201 | 0.035 | 0.0282 | 0.0298 | 0.024 | 0.984 | 1.06 | 1.1 | 1.04 | 0.491 | 0.506 | 0.513 | 0.419
10 | NCI-H520 | 0.217 | 0.234 | 0.144 | 0.125 | 1.17 | 1.24 | 0.599 | 0.134 | 0.213 | 0.214 | 0.203 | 0.207 | 0.785 | 1.16 | 0.332 | 0.28 | 0.489 | 0.527 | 0.264 | 0.212
11 | NCI-H647 | 0.365 | 0.419 | 0.254 | 0.144 | 1.27 | 1.03 | 0.928 | 0.351 | 0.0812 | 0.159 | 0.156 | 0.126 | 1.1 | 1.12 | 1.06 | 1.2 | 0.39 | 0.365 | 0.414 | 0.408
12 | NCI-H727 | 0.595 | 0.65 | 0.541 | 0.496 | 0.55 | 0.433 | 0.303 | 0.156 | 0.328 | 0.306 | 0.337 | 0.345 | 1.12 | 0.889 | 0.838 | 0.942 | 0.959 | 0.833 | 0.884 | 0.755
13 | NCI-H838 | 0.191 | 0.206 | 0.174 | 0.124 | 1.12 | 1.04 | 1.01 | 0.61 | 0.288 | 0.303 | 0.244 | 0.282 | 0.956 | 1.08 | 0.962 | 0.908 | 0.472 | 0.494 | 0.496 | 0.451
14 | NCI-H1355 | 0.405 | 0.356 | 0.293 | 0.217 | 0.941 | 0.902 | 0.828 | 0.501 | 0.799 | 0.689 | 0.752 | 0.696 | 0.94 | 1.02 | 0.952 | 0.952 | 0.347 | 0.362 | 0.379 | 0.345
15 | NCI-H1395 | 0.657 | 0.696 | 0.515 | 0.412 | 1.17 | 1.27 | 0.99 | 0.6 | 0.77 | 0.606 | 0.746 | 0.651 | 1.03 | 0.966 | 0.885 | 0.922 | 0.703 | 0.853 | 0.705 | 0.657
